According to PMC9080489, “Synthesis and biological evaluation of 2-aryl-benzimidazole derivatives of dehydroabietic acid as novel tubulin polymerization inhibitors” (RSC Advances, 2018):
Where two headings read alike, the source gives them in different places.

Legend:
[1] = tested on: human breast cancer cell line (MDA-MB-231); test: MTT cytotoxic assay, MDA-MB-231; type: cell-based; settings: read-out: IC50 MDA-MB-231
Method: (§1) The in vitro antiproliferative activity of DAA derivatives (1–5, 6a–k, 7a–k) were evaluated by MTT assay against human hepatocarcinoma cell line (SMMC-7721), human breast cancer cell line (MDA-MB-231), human cervical carcinoma cell line (HeLa), mouse colon cancer cell line (CT-26) and human normal hepatocyte cell line (QSG-7701). Nocodazole was co-assayed as the positive control and DMEM culture medium containing 0.1% DMSO was used as negative control. The results of the tested compounds expressed as IC50 values (concentration required to inhibit tumor cell proliferation by 50%) were presented in Table 1.
(§2) The human hepatocarcinoma cell line (SMMC-7721), human breast cancer cell line (MDA-MB-231), human cervical carcinoma cell line (HeLa), mouse colon cancer cell line (CT-26) and human normal hepatocyte cells (QSG-7701) used in this study were all obtained from Keygene Biotech., China. These cell lines were maintained in DMEM medium supplemented with 10% heat-inactivated fetal bovine serum in a humidified atmosphere of 5% CO2 at 37 °C.
(§3) The in vitro cytotoxic activities of the benzimidazole derivatives of dehydroabietic acid were evaluated against tested cell lines via the MTT colorimetric method. Briefly, different tumor cells were grown in DMEM medium supplemented with 10% fetal bovine serum, penicillin (100 U mL^−1), and streptomycin (50 μg mL^−1). Cells were harvested at log phase of growth and seeded in 96-well plates (100 μL per well at a density of 2 × 10^5 cells mL^−1). After 24 h incubation at 37 °C and 5% CO2 to allow cell attachment, cultures were exposed to various concentrations of the isolated compounds for 48 h. Finally, MTT solution (2.5 mg mL^−1 in PBS) was added (40 μL per well). Plates were further incubated for 4 h at 37 °C, and the formazan crystals formed were dissolved by adding 150 μL per well of DMSO. Absorption at 570 nm was measured with an ELISA plate reader. The results were expressed as IC50 values with standard deviations, which was defined as the concentration at which 50% survival of cells was discerned. Nocodazole was co-assayed as positive control.

[2] = tested on: human cervical carcinoma cell line (HeLa); test: MTT cytotoxic assay, HeLa; type: cell-based; settings: read-out: IC50 HeLa
Method: as §1, §2, §3

[3] = tested on: mouse colon cancer cell line (CT-26); test: MTT cytotoxic assay, CT-26; type: cell-based; settings: read-out: IC50 CT-26
Method: as §1, §2, §3

[4] = tested on: human normal hepatocyte cell line (QSG-7701); test: MTT cytotoxic assay, QSG-7701; type: cell-based; settings: QSG7701, 48 h exposure
Method: as §1, §2, §3

[5] = tested on: human hepatocarcinoma cell line (SMMC-7721); test: MTT cytotoxic assay, SMMC-7721; type: cell-based; settings: read-out: IC50 SMMC-7721
Method: as §1, §2, §3

[6] = Mus musculus, CT26, 48 h, MTT, 48 h exposure
[7] = Homo sapiens, SMMC-7721, 48 h, MTT, 48 h exposure

Compound	melting point	IC50 ([1]; MDA-MB-231, MTT, 48 h exposure)	IC50 ([2]; MTT, 48 h exposure)	IC50 ([3]; MTT, 48 h exposure)	IC50 [3, 6]	IC50 [4]	IC50 [5, 7]	IC50 ([5]; MTT, 48 h exposure)	IC50 ([5]; Homo sapiens, SMMC-7721, 48 h)	IC50 ([1]; MDA-MB-231, 48 h)	IC50 ([2]; 48 h)	IC50 ([3]; Mus musculus, CT26, 48 h)
COC(=O)[C@]1(C)CCC[C@]2(C)c3cc(Br)c4nc(-c5ccc(F)cc5)[nH]c4c3CCC12 (some centres unmarked) [Compound 6c, Methyl 2′-(4-fluorophenyl)-12-bromo-13,14-imidazolyl-deisopropyl-dehydroabietate]	149 to 151 °C	18.2 ± 1.2 µM	8.01 ± 0.76 µM	2.82 ± 0.97 µM	< 5 µM	> 50 µM	–	–	–	–	–	–
COC(=O)[C@]1(C)CCC[C@]2(C)c3cc(Br)c([N+](=O)[O-])c([N+](=O)[O-])c3CCC12 (some centres unmarked) [Compound 4, methyl 12-bromo-13,14-dinitro-deisopropyldehydroabietate]	–	–	–	–	–	–	–	–	31.8 ± 3.22 µM	38.8 ± 2.15 µM	> 50 µM	35.1 ± 3.87 µM
CC(C)c1ccc2c(c1)CC[C@H]1[C@](C)(C(=O)O)CCC[C@]21C [Compound 1, Dehydroabietic acid]	–	> 50 µM	> 50 µM	–	> 50 µM	–	> 50 µM	–	–	–	–	–
COC(=O)[C@]1(C)CCC[C@]2(C)c3ccc(C(C)C)cc3CCC12 (some centres unmarked) [Compound 2]	–	> 50 µM	> 50 µM	–	> 50 µM	–	> 50 µM	–	–	–	–	–
COC(=O)[C@]1(C)CCC[C@]2(C)c3cc(Br)c4nc(-c5ccc(C)cc5)[nH]c4c3CCC12 (some centres unmarked) [Compound 6b, Methyl 2′-(p-tolyl)-12-bromo-13,14-imidazolyl-deisopropyl-dehydroabietate]	143 to 145 °C	> 50 µM	> 50 µM	–	25.3 ± 4.96 µM	–	> 50 µM	–	–	–	–	–
COC(=O)[C@]1(C)CCC[C@]2(C)c3cc(Br)c4nc(-c5ccc(OC)cc5)[nH]c4c3CCC12 (some centres unmarked) [Compound 6i, Methyl 2′-(4-methoxyphenyl)-12-bromo-13,14-imidazolyl-deisopropyl-dehydroabietate]	140 to 142 °C	> 50 µM	> 50 µM	–	21.2 ± 2.23 µM	–	> 50 µM	–	–	–	–	–
COC(=O)[C@]1(C)CCC[C@]2(C)c3cc(Br)c4nc(-c5ccc(Br)cc5)[nH]c4c3CCC12 (some centres unmarked) [Compound 6h, Methyl 2′-(4-bromophenyl)-12-bromo-13,14-imidazolyl-deisopropyl-dehydroabietate]	141 to 142 °C	35.3 ± 1.77 µM	> 50 µM	–	> 50 µM	–	16.6 ± 1.4 µM	–	–	–	–	–
COC(=O)[C@]1(C)CCC[C@]2(C)c3cc(Br)c4nc(-c5ccccc5Cl)[nH]c4c3CCC12 (some centres unmarked) [Compound 6g, Methyl 2′-(2-chlorophenyl)-12-bromo-13,14-imidazolyl-deisopropyl-dehydroabietate]	142 to 143 °C	19.2 ± 0.93 µM	> 50 µM	–	> 50 µM	–	40.8 ± 3.32 µM	–	–	–	–	–
COC(=O)[C@]1(C)CCC[C@]2(C)c3cc(Br)c(C(C)C)cc3CCC12 (some centres unmarked) [Compound 3]	–	> 50 µM	> 50 µM	–	> 50 µM	–	> 50 µM	–	–	–	–	–
COC(=O)Nc1nc2ccc(C(=O)c3cccs3)cc2[nH]1 [Nocodazole, nocodazole, reference compound]	–	0.76 ± 0.06 µM	0.87 ± 0.05 µM	–	1.37 ± 0.11 µM	13.8 ± 1.08 µM	0.92 ± 0.07 µM	–	–	–	–	–
COC(=O)[C@]1(C)CCC[C@]2(C)c3cc(Br)c4nc(-c5c[nH]c6ccccc56)[nH]c4c3CCC12 (some centres unmarked) [Compound 6k, Methyl 2′-(1H-indol-3-yl)-12-bromo-13,14-imidazolyl-deisopropyl-dehydroabietate]	139 to 140 °C	0.56 ± 0.13 µM	0.98 ± 0.11 µM	–	–	8.43 ± 1.06 µM	–	–	–	–	–	–
COC(=O)[C@]1(C)CCC[C@]2(C)c3cc(Br)c4nc(-c5ccc(Cl)cc5)[nH]c4c3CCC12 (some centres unmarked) [Compound 6f, Methyl 2′-(4-chlorophenyl)-12-bromo-13,14-imidazolyl-deisopropyl-dehydroabietate]	139 to 141 °C	33.7 ± 4.7 µM	> 50 µM	–	> 50 µM	–	16.5 ± 1.87 µM	–	–	–	–	–
COC(=O)[C@]1(C)CCC[C@]2(C)c3cc(Br)c4nc(-c5ccccc5F)[nH]c4c3CCC12 (some centres unmarked) [Compound 6e, Methyl 2′-(2-fluorophenyl)-12-bromo-13,14-imidazolyl-deisopropyl-dehydroabietate]	138 to 139 °C	> 50 µM	> 50 µM	–	> 50 µM	–	12.3 ± 2.46 µM	–	–	–	–	–
COC(=O)[C@]1(C)CCC[C@]2(C)c3cc(Br)c(N)c(N)c3CCC12 (some centres unmarked) [Compound 5]	–	> 50 µM	43.4 ± 2.81 µM	–	38.5 ± 3.79 µM	–	> 50 µM	–	–	–	–	–

Now from value to molecule, other results behind:

melting point	Compound	IC50 ([1]; MDA-MB-231, MTT, 48 h exposure)	IC50 ([2]; MTT, 48 h exposure)	IC50 ([3]; MTT, 48 h exposure)	IC50 [3, 6]	IC50 [4]	IC50 [5, 7]	IC50 ([5]; MTT, 48 h exposure)	IC50 ([5]; Homo sapiens, SMMC-7721, 48 h)	IC50 ([1]; MDA-MB-231, 48 h)	IC50 ([2]; 48 h)	IC50 ([3]; Mus musculus, CT26, 48 h)
156 to 158 °C	COC(=O)[C@]1(C)CCC[C@]2(C)c3cc(-c4cc(OC)c(OC)c(OC)c4)c4nc(-c5cccc(F)c5)[nH]c4c3CCC12 (some centres unmarked) [Compound 7d, Methyl 2′-(3-fluorophenyl)-12-(3,4,5-trimethoxyphenyl)-13,14-imidazolyl-deisopropyl-dehydroabietate]	6.42 ± 0.04 µM	12.9 ± 1.26 µM	2.7 ± 0.12 µM	< 5 µM	> 50 µM	> 50 µM	–	–	–	–	–
133 to 135 °C	COC(=O)[C@]1(C)CCC[C@]2(C)c3cc(-c4cc(OC)c(OC)c(OC)c4)c4nc(-c5ccc(C)cc5)[nH]c4c3CCC12 (some centres unmarked) [Compound 7b, Methyl 2′-(p-tolyl)-12-(3,4,5-trimethoxyphenyl)-13,14-imidazolyl-deisopropyl-dehydroabietate]	> 50 µM	> 50 µM	–	15.6 ± 1.57 µM	–	> 50 µM	–	–	–	–	–
139 to 141 °C	COC(=O)[C@]1(C)CCC[C@]2(C)c3cc(-c4cc(OC)c(OC)c(OC)c4)c4nc(-c5ccc(F)cc5)[nH]c4c3CCC12 (some centres unmarked) [Compound 7c, Methyl 2′-(4-fluorophenyl)-12-(3,4,5-trimethoxyphenyl)-13,14-imidazolyl-deisopropyl-dehydroabietate]	0.69 ± 0.21 µM	7.63 ± 1.03 µM	–	8.95 ± 0.17 µM	36.1 ± 2.32 µM	< 5 µM	3.29 ± 0.13 µM	–	–	–	–
157 to 159 °C	COC(=O)[C@]1(C)CCC[C@]2(C)c3cc(-c4cc(OC)c(OC)c(OC)c4)c4nc(-c5ccccc5Cl)[nH]c4c3CCC12 (some centres unmarked) [Compound 7g, Methyl 2′-(2-chlorophenyl)-12-(3,4,5-trimethoxyphenyl)-13,14-imidazolyl-deisopropyl-dehydroabietate]	15.7 ± 0.87 µM	> 50 µM	–	13.4 ± 2.35 µM	–	> 50 µM	–	–	–	–	–
189 to 191 °C	COC(=O)[C@]1(C)CCC[C@]2(C)c3cc(-c4cc(OC)c(OC)c(OC)c4)c4nc(-c5ccc6[nH]ccc6c5)[nH]c4c3CCC12 (some centres unmarked) [Compound 7j, Methyl 2′-(1H-indol-5-yl)-12-(3,4,5-trimethoxyphenyl)-13,14-imidazolyl-deisopropyl-dehydroabietate]	0.83 ± 0.2 µM	3.75 ± 0.78 µM	–	–	12.8 ± 1.27 µM	–	–	–	–	–	–
153 to 155 °C	COC(=O)[C@]1(C)CCC[C@]2(C)c3cc(-c4cc(OC)c(OC)c(OC)c4)c4nc(-c5ccc(OC)cc5)[nH]c4c3CCC12 (some centres unmarked) [Compound 7i, Methyl 2′-(4-methoxyphenyl)-12-(3,4,5-trimethoxyphenyl)-13,14-imidazolyl-deisopropyl-dehydroabietate]	> 50 µM	> 50 µM	–	23.5 ± 2.38 µM	–	> 50 µM	–	–	–	–	–
199 to 201 °C	COC(=O)[C@]1(C)CCC[C@]2(C)c3cc(-c4cc(OC)c(OC)c(OC)c4)c4nc(-c5c[nH]c6ccccc56)[nH]c4c3CCC12 (some centres unmarked) [Compound 7k, Methyl 2′-(1H-indol-3-yl)-12-(3,4,5-trimethoxyphenyl)-13,14-imidazolyl-deisopropyl-dehydroabietate]	0.21 ± 0.02 µM	5.86 ± 0.63 µM	–	–	11.8 ± 2.12 µM	–	–	–	–	–	–
155 to 157 °C	COC(=O)[C@]1(C)CCC[C@]2(C)c3cc(-c4cc(OC)c(OC)c(OC)c4)c4nc(-c5ccccc5F)[nH]c4c3CCC12 (some centres unmarked) [Compound 7e, Methyl 2′-(2-fluorophenyl)-12-(3,4,5-trimethoxyphenyl)-13,14-imidazolyl-deisopropyl-dehydroabietate]	18.2 ± 1.32 µM	18.3 ± 2.98 µM	–	10.4 ± 1.91 µM	–	> 50 µM	–	–	–	–	–
